Assays:
Format in all cases: in vivo
[1] = tested on: rats; test: Sodium iodoacetate-induced knee joint osteoarthritic pain model (hind limb grip force); details: rat, 30 mg/kg single acute oral dose, assessed 1 hour following administration, 20 days after iodoacetate
Procedure: Unilateral knee joint osteoarthritis was induced in the rats by a single intra-articular (i.a.) injection of sodium iodoacetate (3 mg in 0.05 mL sterile isotonic saline) into the right knee joint cavity under light isoflurane anesthesia using a 26G needle. […] Pain behavioral assessment of hind limb grip force was conducted by recording the maximum compressive force exerted on the hind limb strain gauge setup, in a commercially available grip force measurement system (Columbus Instruments, Columbus, Ohio). The grip force data was converted to a maximum hindlimb cumulative compressive force (CFmax) (gram force)/kg body weight for each animal. The analgesic effects of test compounds were determined 20 days following the i.a. injection of sodium iodoacetate. The vehicle control group for each compound being tested was assigned 0% whereas the age matched naïve group was assigned as being 100% (normal). The % effect for each dose group was then expressed as % return to normalcy compared to the naïve group. Test compounds were administered orally in 10% ethanol/20% Tween 80/70% polyethylene glycol-400 vehicle at a volume of 2 mL/kg. The assessment of the analgesic effects of test compounds was made 1 hour following oral administration. […]

[2] = tested on: rats; test: Rat acute capsaicin-induced flinching behavior; details: single acute oral dose 100 μmol/kg, capsaicin 2.5 μg one hour after dosing, five minute observation
Procedure: Rats were placed in individual observation cages. Following an acclimation period of 30 minutes, selected compounds were administered orally at a dose of 100 μmol/kg orally in a vehicle (10% ethanol/20% Tween 80/70% polyethylene glycol-400) at a volume of 2 mL/kg. One hour after administration of the compound, 2.5 μg of capsaicin in a 10 μL solution of 10% ethanol/90% hydroxypropyl-β-cyclodextrin was injected subcutaneously into the dorsal aspect of the right hind paw. The observation cage was then suspended above mirrors in order to facilitate observation. […] The number of flinching behaviors of the injured paw was recorded during the five minute observation period (Gilchrist, H. D.; Allard, B. L.; Simone, D. A.; Enhanced withdrawal responses to heat and mechanical stimuli following intraplantar injection of capsaicin in rats. Pain, 1996, 67, 179-188). A single acute oral dose of Example 10 as described above produced a 56% reduction in flinching behavior relative to vehicle-treated animals.

[3] = tested on: rats; test: Rat tail immersion assay (noxious thermosensation, 55° C. water bath)
Procedure: Compounds were tested for their effects on noxious thermosensation using the tail immersion assay. Testing was performed one hour following oral administration of 100 μmol/kg of the compound in 10% ethanol/20% Tween-80/70% PEG-400 (2 mL/kg). Mophine (6 mg/kg) was administered interperitoneally (i.p.) using saline (2 mL/kg) as the vehicle. For testing, a circulating water bath was heated to 55° C. Thirty to sixty minutes post dosing, the rats were handled for a few seconds to calm them down and then cupped with their back against the testers hand at a slight angle with head facing away from tester. With rat in one hand and a 0.01 second stopwatch in the other hand, the tail was quickly immersed 6-8 cm in water bath or to a distance leaving 2-3 cm of tail out of water. The timer was started simultaneously. When the rat flinched or attempted withdrawal, timer was immediately stopped and the rat's tail was quickly removed from water bath. This response latency (in seconds) was recorded. Process was repeated 3 times with 3-4 minutes between readings for a final average.
For a given example, a percent increase in the average response latency (in seconds) for tail withdrawal relative to a vehicle control was determined % increase=[(tc−tv)/tv]×100%
tc=response time (in seconds) with oral dosing of compounds
tv=response time (in seconds) with oral dosing of vehicle
The % increases in tail withdrawal latency relative to vehicle control are divided into the following categories: […]

## CS(=O)(=O)Nc1ccc(CNC(=O)N[C@@H]2CC(CF)(CF)Oc3cc(C(F)(F)F)ccc32)cc1F [Example 10, N-{4-[({[(4R)-2,2-bis(fluoromethyl)-7-(trifluoromethyl)-3,4-dihydro-2H-chromen-4-yl]carbamoyl}amino)methyl]-2-fluorophenyl}methanesulfonamide]
[1]
  % effect (% return to normalcy) in iodoacetate-induced osteoarthritic pain model: 62%
[2]
  reduction in flinching behavior relative to vehicle-treated animals: 56%
[3]; rat, oral 100 μmol/kg, one hour post dosing, relative to vehicle
  % Increase in Tail Withdrawal Latency: −
[3]; rats, after oral administration
  increase in tail withdrawal latency relative to vehicle-treated animals: < 10%

Source: US8796328B2, “TRPV1 antagonists” (AbbVie Inc., priority 2012, dated 2014)
